From US11091876B2, “Moisture resistant biodegradable composition” (AUTOM RIVER INC., priority 2015, dated 2021)

Tests used:
[1] = tested on: plants; details: cited from earlier work
[2] = tested on: mosquitoes; test: Mosquito mortality with insecticide-sprayed water-filled containers in a closed area; format: in vivo; details: containers double sprayed, after about 4 weeks
Procedure: The biodegradable containers also successfully functioned as a mosquito trap. For example, containers were double sprayed with lambda-cyalothrin, filled with water and placed in a closed area with a known number of mosquitoes. After about 4 weeks, mosquito mortality was measured by counting the number of live mosquitoes compared to the dead mosquitoes. 100% mosquito mortality was achieved.

In the case of `CC1(C)C(C=C(Cl)Cl)C1C(=O)OCc1cccc(Oc2ccccc2)c1` (stereo not drawn) [permethrin], the “incompatibility on cultivated plants” value [1] is given as “No incompatibility has been observed” and the “phytotoxicity to most plants” value ([1]; when used as directed) is given as “not phytotoxic”.

In the case of `CC1(C)[C@H](C(=O)O[C@H](C#N)c2cccc(Oc3ccccc3)c2)[C@@H]1/C=C(\Cl)C(F)(F)F` [lambda-cyalothrin], the mosquito mortality [2] is reported as 100%.
